In patent publication EP2108954A1, “A test system for detecting intracellular cyclic nucleotide level and methods and uses thereof” (Max-Planck-Gesellschaft zur Förderung der Wissenschaften …, priority 2008, dated 2009):
Several values for one entry are separate records, joined by “and”; a condition that tells them apart may be missing. Equal values may be shown once.

Assays:
Or22a and Or83b = target: T1, Or22a and Or83b (Drosophila melanogaster, UniProt P81909+Q9VNB5); assay: Whole-cell patch-clamp of currents in HEK293 cells coexpressing Or22a and Or83b; assay type: cell-based; conditions: absence of Etb; 10 µM benzaldehyde; n = 6
T1 construct: expressed in transfected cells; host or cells: HEK293
T1 sequence (P81909 1-397): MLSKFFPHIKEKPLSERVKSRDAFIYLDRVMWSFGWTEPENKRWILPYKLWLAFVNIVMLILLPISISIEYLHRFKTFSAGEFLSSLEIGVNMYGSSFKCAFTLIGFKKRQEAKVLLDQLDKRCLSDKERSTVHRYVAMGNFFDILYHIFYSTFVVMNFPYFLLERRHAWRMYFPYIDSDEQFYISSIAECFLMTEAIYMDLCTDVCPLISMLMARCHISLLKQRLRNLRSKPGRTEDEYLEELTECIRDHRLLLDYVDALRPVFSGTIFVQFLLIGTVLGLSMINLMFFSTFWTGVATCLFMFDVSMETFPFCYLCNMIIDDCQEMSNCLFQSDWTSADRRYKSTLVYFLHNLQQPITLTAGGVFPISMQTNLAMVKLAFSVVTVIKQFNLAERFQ
T1 sequence (Q9VNB5 1-486): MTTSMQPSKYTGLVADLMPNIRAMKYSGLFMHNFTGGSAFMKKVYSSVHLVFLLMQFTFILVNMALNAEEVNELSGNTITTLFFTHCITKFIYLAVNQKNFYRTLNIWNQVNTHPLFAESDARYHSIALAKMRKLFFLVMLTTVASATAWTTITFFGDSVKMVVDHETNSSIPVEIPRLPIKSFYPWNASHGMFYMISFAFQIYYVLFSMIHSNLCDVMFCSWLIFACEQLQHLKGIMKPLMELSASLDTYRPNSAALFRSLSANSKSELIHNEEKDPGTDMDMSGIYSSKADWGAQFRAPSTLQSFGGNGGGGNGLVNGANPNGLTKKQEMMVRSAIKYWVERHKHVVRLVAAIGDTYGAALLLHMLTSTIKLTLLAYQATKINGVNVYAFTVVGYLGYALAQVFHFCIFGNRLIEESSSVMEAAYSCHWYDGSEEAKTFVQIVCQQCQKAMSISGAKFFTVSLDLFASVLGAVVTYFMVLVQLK
Protocol: (§1) In some experiments we transfected cells with pcDNA3-DOR22a-GFP or pcDNA3-DOR83b-GFP alone. We also examined the properties of DOR47a, which was cloned, using standard molecular biology methods into a pcDNA3.1(-) expression vector. To test for putative G-protein coupling, cells were transfected with the respective OR-DNA together with 1.5 µg hHCN2/pcDNA3 (provided by M. Biel, Munich, Germany), with 1 µg hKCNQ4/pcDNA3.1 or with 1 µg hCNGA2/pCMV6-XL4 (Origene, Rockville, MD, USA).
(§2) In brief, ion currents in HEK293 cells were measured at room temperature using whole-cell patch-clamp with appropriate compensation of series resistance and of capacitive currents. Additional experiments were performed in the outside-out configuration. Current measurements and data acquisition were performed using an EPC9 patch-clamp amplifier controlled by PatchMaster software (both HEKA Elektronik, Lambrecht, Germany). Patch-clamp pipettes were fabricated from borosilicate capillaries. Pipettes for whole-cell recordings had resistances of 2-4 MΩ for excised-patch recordings the pipette resistance was up to 15 MΩ.
(§3) To differentiate between ionotropic and metabotropic pathways of receptor activation (Fig. 2a-d) the pipette solution contained either 2 mM ATP plus 2 mM GTP or 2 mM ADP plus 2 mM GDP (both for whole-cell and outside-out configuration). For the preparation of Cl^--free solutions the chloride salts were substituted by gluconate salts. The pipette Cs^+ solution contained (in mM) 140 CsCl, 1 Mg-ATP, 10 EGTA, 10 HEPES (pH = 7.3), and the Cs^+ bath solution contained (in mM) 140 CsCl, 15 glucose, 15 HEPES (pH = 7.4). The Ca^2+-free bath solution contained (in mM) 140 NaCl, 15 glucose, 15 HEPES, and the Na^+-free bath solution contained (in mM) 140 NMDG-Cl, 10 CaCl2, 10 glucose, 15 HEPES.
(§4) With the exception of GDP-γ-S, which was applied via the patch pipette, all substances were applied to the bath using either a bath perfusion system (BPS4 from ALA, New York, USA) or a rapid solution changer (RSC160 from Biologic, Claix, France) which were controlled by the PatchMaster software (HEKA Elektronik).

Or47a and Or83b = target: T2, Or47a and Or83b (Drosophila melanogaster, UniProt P81921+Q9VNB5); assay: Whole-cell patch-clamp of HEK293 cells expressing Or47a and Or83b; assay type: cell-based; conditions: 100 µM; -100 mV (Fig. 7)
T2 construct: expressed in transfected cells; host or cells: HEK293
T2 sequence (P81921 1-385): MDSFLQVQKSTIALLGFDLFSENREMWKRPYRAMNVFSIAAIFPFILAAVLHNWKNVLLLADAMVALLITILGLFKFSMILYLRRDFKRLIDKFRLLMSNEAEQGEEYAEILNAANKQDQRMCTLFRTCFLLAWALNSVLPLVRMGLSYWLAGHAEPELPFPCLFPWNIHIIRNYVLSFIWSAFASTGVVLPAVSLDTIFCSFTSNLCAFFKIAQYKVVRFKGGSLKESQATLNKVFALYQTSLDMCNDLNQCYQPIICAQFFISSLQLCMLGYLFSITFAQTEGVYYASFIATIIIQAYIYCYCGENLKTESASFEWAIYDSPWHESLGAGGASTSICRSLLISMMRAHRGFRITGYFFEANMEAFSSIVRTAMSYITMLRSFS
T2 sequence (Q9VNB5 1-486): T1 sequence (Q9VNB5 1-486)
Protocol: as §1, §2

[1] = target: Periplaneta adipokinetic hormone receptor (pAKHR) (Periplaneta); assay: cell-based or functional assay
Or83b [2] = target: T3, Or83b (Drosophila melanogaster, UniProt Q9VNB5); assay: Whole-cell patch-clamp of HEK293 cells expressing Or83b alone; assay type: cell-based; set-up: expressed in transfected cells; host or cells: HEK293
T3 sequence (Q9VNB5 1-486): T1 sequence (Q9VNB5 1-486)
Protocol: as §1, §2, §3, §4

Or83b [3] = target: T3, Or83b; assay: Calcium imaging (fura-2) in HEK293 cells expressing Or83b; assay type: cell-based; set-up: expressed in transfected cells; host or cells: HEK293; conditions: cell expressing Or83b (Fig. 6e)
Protocol: Free intracellular Ca^2+ concentration ([Ca^2+]i) was determined by fura-2 fluorescence as described (Messutat et al., Cell Calcium 30, 199-211. (2001)). In brief, cells were loaded with fura-2 by incubation in bath solution containing 2 µM fura-2/acetomethylester for 20 min. Free intracellular Ca^2+ concentration ([Ca^2+]i) was determined with the fluorescence ratio method. Excitation of fura-2 at 340 and 380 nm was performed with a monochromator (Polychrome II, T.I.L.L. Photonics, Gräfelfing, Germany) coupled via an epifluorescence condenser into an Axioskop FS microscope (Carl Zeiss, Jena, Germany) with a water immersion objective (LUMPFL 40xW/IR/0.8; Olympus, Hamburg, Germany). […] [Ca^2+]i was calculated according to the equation [Ca^(2 +)]i = Keff (R-Rmin)/(Rmax-R). […] Keff, Rmin, and Rmax were determined using HEK293 cells permeabilized with 2 µM ionomycin and three solutions with different concentrations of free Ca^2+ (Ca^2+ free; 5 mM Ca^2+; 500 nM Ca^2+; the composition of the 500 nM solution was calculated with WEBMAXC v.2.20) (Patton et al., Cell Calcium 35, 427-31 (2004)). […]
Fluorescence images were acquired using a cooled CCD camera controlled by TILLVision 4.0 software (T.I.L.L. Photonics). […] Image pairs were obtained by excitation for 100 ms at 340 nm and 380 nm; background fluorescence was subtracted.

vertebrate CNGA2 channel = target: T4, vertebrate CNGA2 channel (Rattus norvegicus, UniProt Q00195); conditions: Dhallan et al., Nature 347 (1990); cited from earlier work
T4 sequence (Q00195 1-664): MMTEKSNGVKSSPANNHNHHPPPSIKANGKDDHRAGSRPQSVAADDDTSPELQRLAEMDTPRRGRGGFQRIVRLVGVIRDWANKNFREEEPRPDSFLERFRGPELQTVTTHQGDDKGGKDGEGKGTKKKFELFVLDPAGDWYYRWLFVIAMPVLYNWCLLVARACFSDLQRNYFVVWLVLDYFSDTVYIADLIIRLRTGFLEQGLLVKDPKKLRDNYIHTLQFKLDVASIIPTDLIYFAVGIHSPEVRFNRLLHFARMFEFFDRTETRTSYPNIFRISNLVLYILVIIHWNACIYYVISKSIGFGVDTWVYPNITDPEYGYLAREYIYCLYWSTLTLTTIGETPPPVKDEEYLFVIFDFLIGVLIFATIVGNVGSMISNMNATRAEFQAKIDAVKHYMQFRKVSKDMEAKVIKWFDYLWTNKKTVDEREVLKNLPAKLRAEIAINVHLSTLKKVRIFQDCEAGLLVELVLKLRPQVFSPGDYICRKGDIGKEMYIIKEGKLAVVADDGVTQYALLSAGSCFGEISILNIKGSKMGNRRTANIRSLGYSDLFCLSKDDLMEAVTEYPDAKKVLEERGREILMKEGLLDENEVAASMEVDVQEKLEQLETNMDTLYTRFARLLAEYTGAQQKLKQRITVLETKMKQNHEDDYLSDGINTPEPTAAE

[4] = tested on: modified cyclic nucleotide-gated ion channels; conditions: US 07166463 and US 07341836; cited from earlier work
Or83b [5] = target: T3, Or83b; assay: cell-based; conditions: -60 mV, n = 10
Protocol: For this, HEK293 cells were cultured at a density of ∼2*10^4 per 35-mm dish and transfected with 1 µg pcDNA3-DOR83b-GFP (Neuhaus et al., Nat Neurosci 8: 15-17, 2005.) using Roti-Fect transfection kit (Roth, Karlsruhe, Germany). For electrophysiological experiments we only used cells showing GFP fluorescence (when illuminated at 470 nm) as indicator of putative OR expression.
For electrophysiological studies, ion currents in HEK293 cells were measured at room temperature in the inside-out configuration. Current measurements and data acquisition were performed using an EPC9 patch-clamp amplifier controlled by PatchMaster software (both HEKA Elektronik, Lambrecht, Germany). Patch-clamp pipettes were fabricated from borosilicate capillaries. Pipettes for whole-cell recordings had resistances of up to 15 MΩ. The bath solution contained (in mM) 140 KCI, 4 NaCl, 2.2 CaCl2, 2 Mg-ATP, 0.05 Na-GTP, 5 EGTA, 10 HEPES (pH 7.3), and the pipette solution contained (in mM) 135 NaCl, 5 KCI, 1 CaCl2, 1 MgCl2, 10 HEPES, 10 glucose (pH 7.4).

With O=Cc1ccccc1 [Bea, benzaldehyde] the “effect on current recorded under control conditions” value (Or22a and Or83b) was “reduced the current recorded under control conditions”.

In the case of CCCCCOC(C)=O [PA, pentyl acetate], the “current response of cells” value (Or47a and Or83b) is reported as “responding”.

Molecule “adipokinetic hormone I (AKH I) (peptide)” has a membrane current at -100 mV (whole-cell patch clamp, ramp protocol) in HEK293 cells coexpressing pAKHR and the cAMP-activated channel Or83b, after application of AKH I [1] of 294 pA.

With Nc1nc2c(nc(Br)n2[C@@H]2O[C@@H]3COP(=O)(O)O[C@H]3[C@H]2O)c(=O)[nH]1 [8-bromo-cGMP] the “current response of cells” value (Or47a and Or83b) was “responsive”, the current elicited (Or83b [2]; Or83b-expressing HEK293 cells) was “elicited a current similar to that obtained upon 8-bromo-cAMP application” and the “agonist comparison for current activation” value (Or83b [2]; concentration-response relations, -100 mV (Fig. 6d)) was “significantly better agonist than 8-bromo-cAMP”. For the same molecule, the “agonist comparison for the elevation of [Ca^2+]i” value (Or83b [3]) was “significantly better agonist than 8-bromo-cAMP”.

For CCCCCCOC(=O)C1(O)CC2OC1(C)n1c3ccccc3c3c4c(c5c6ccccc6n2c5c31)C(=O)NC4 (stereo not drawn) [KT5720], the “effect of preincubation on ion currents elicited by 8-bromo-cAMP” value (Or83b [2]; 10 µM, n = 6) was “not significantly altered”.

For Nc1nc2c(ncn2[C@@H]2O[C@@H]3COP(=O)(O)O[C@H]3[C@H]2O)c(=O)[nH]1 [cGMP, cyclic guanosine monophosphate], the EC50 (vertebrate CNGA2 channel) is given as 1 µM.

For Nc1ncnc2c1ncn2[C@@H]1O[C@@H]2COP(=O)(O)O[C@H]2[C@H]1O [cAMP, 3'-5'-cyclic adenosine monophosphate], the EC50 [4] is given as 14.5 µM, the “Hill coefficient of mean currents of inside-out patches” value (Or83b [5]) is given as 0.42 and the EC50 (Or83b [5]; EC50 of mean currents of inside-out patches) is given as 0.001 µM and 0.0011 µM.
